Assays:
[1] = system: rabbit progesterone receptor (rbPR) and glucocorticoid receptor (rbGR); assay: Receptor-binding assays, ratio of relative binding affinities rbPR/rbGR; conditions: RBA = EC50 of standard/EC50 of test compound x 100
Experimental: Certain antiprogestins were tested in receptor-binding assays for their ability to bind rabbit progesterone receptor (rbPR) and glucocorticoid receptor (rbGR). Briefly, cytosol containing PR or GR were prepared in TEGMD buffer (10 mM Tris, pH 7.2, 1.5 mM EDTA, 0.2 mM sodium molybdate, 10% glycerol, 1 mM DTT) from uterus or thymus, respectively, of estradiol-primed immature rabbits. For PR binding, the cytosol was incubated with 6 nM 1,2-[^3H]progesterone (50.0 Ci/mmole) and competitors were added at concentrations from 2 to 100 nM. For binding to GR, the cytosol was incubated with 6 nM 6,7-[^3H]-dexamethasone (40 Ci/mmol) and test compounds were added at concentrations from 20 to 100 nM. After overnight incubation at 4° C., bound and unbound [^3H] steroids were separated by addition of dextran-coated charcoal and centrifugation at 2100×g for 15 min at 4
C. Supernatants containing the [3H]-steroid receptor complexes were decanted into vials containing 4 ml Optifluor (Packard Instrument Co.), vortexed, equilibrated in a liquid scintillation counter for 30 minutes and then counted for 2 minutes. The ECso (Effective Concentration) for each standard curve and each of the compound curves was determined by entering the counting data into a four parameter sigmoidal computer program (RiaSmart® Immunoassay Data Reduction Program, Packard Instrument Co., Meriden, Conn.). Relative binding affinity (RBA) for each compound was calculated using the following equation: EC50 of standard/EC50 of test compound×100. The standards for the PR and GR assays were unlabeled progesterone and dexamethasone, respectively. The results of these experiments are summarized in Table 1, as a ratio of the relative binding affinities of each compound for the rbPR and rbGR receptors (rbPR/rbGR).

[2] = system: rabbit uterus; assay: Anti-McGinty and anti-Clauberg assays; format: in vivo; conditions: average of anti-McGinty and anti-Clauberg results relative to CDB-2914 = 1.00
Text: Also given in the Table are the relative biological activities of the same compounds in the rabbit uterus by the anti-McGinty and anti-Clauberg assays. Compound CDB-2914 (listed at the end of the Table) was used as the control or reference compound (rabbit Biological Activity=1.00) for these experiments because results of experiments using CDB-2914 have been published before (Hild-Petito et al., 1996; Passaro et al., 1997; Reel et al., 1998; Lamer et al., 2000). For the anti-McGinty test, immature female rabbits received a subcutaneous injection of 5 μg estradiol in 10% ethanol/sesame oil daily for 6 consecutive days. On day 7, animals underwent sterile abdominal surgery to ligate a 3-4 cm segment of both uterine horns. The test compound in appropriate solvent was injected intraluminally into the ligated segment of one uterine horn and vehicle alone into the other. A stimulating dose of progesterone (267 μg/day) was administered subcutaneously to each rabbit daily for the next three days to induce endometrial proliferation. All animals were sacrificed at day 10 for removal of the uterus where a segment central to the ligatures was removed and fixed in 10% neutral buffered formalin and submitted for histological processing. Five micron sections stained with hematoxylin and cosin were evaluated microscopically for the degree of endometrial glandular proliferation. The percent inhibition of endometrial proliferation for each rabbit was calculated and the mean of the group of five animals recorded. For the Anti-Clauberg test, immature female rabbits received a subcutaneous injection of 5 μg estradiol in 10% ethanol/sesame oil daily for 6 consecutive days. On day 7, animals received progesterone by subcutaneous injection (160 μg/day) and the experimental compound in appropriate vehicle orally or subcutaneously for five consecutive days. One group of rabbits received progesterone only. Twenty-four hours after the last dose, all animals were sacrificed for removal of the uterus which was cleaned of all fat and connective tissue, weighed to the nearest 0.2 mg and placed in 10% neutral buffered formalin for subsequent histological processing. Five micron sections stained with hematoxylin and eosin were evaluated microscopically for the degree of endometrial glandular proliferation. The percent inhibition of endometrial proliferation at each dose level of the test compound was derived by comparison with progesterone-stimulated animals alone. The data presented in Table 1 (rabbit Biol. Act.) reflects the average of the results obtained for each compound by the anti-McGinty and anti-Clauberg assays relative to CDB-2914.

Molecule	rbPR/rbGR (ratio of the relative binding affinities for rbPR and rbGR) [1]	rabbit Biol. Act. [2]
CCC(=O)[C@@]1(OC(C)=O)CCC2C3CCC4=CC(=O)CCC4=C3C(c3ccc(N(C)C)cc3)C[C@@]21C (stereo partly drawn) [CDB-4030, 21-methyl-17α-acetoxy-11β-(4 N,N-dimethylaminophenyl)-19-norpregna-4,9-diene-3,20-dione]	0.96	–
CC(=O)OCC(=O)[C@@]1(OC(C)=O)CCC2C3CCC4=CC(=NO)CCC4=C3C(c3ccc(N(C)C)cc3)C[C@@]21C (stereo partly drawn) [CDB-4206, 3-hydroxyamino-21-acetoxy-17α-acetoxy-11β-(4 N,N-dimethylaminophenyl)-19-norpregna-4,9-diene-3,20-dione]	1.44	0.68
CSCC(=O)[C@@]1(OC(C)=O)CCC2C3CCC4=CC(=O)CCC4=C3C(c3ccc(N(C)C)cc3)C[C@@]21C (stereo partly drawn) [CDB-4223, 21-methylthio-17α-acetoxy-11β-(4 N,N-dimethylaminophenyl)-19-norpregna-4,9-diene-3,20-dione]	1.17	–
CC(=O)O[C@]1(C2COC(C)(C)O2)CCC2C3CCC4=CC(=O)CCC4=C3C(c3ccc(N(C)C)cc3)C[C@@]21C (stereo partly drawn) [CDB-4110, 21-acetonide-17α-acetoxy-11β-(4 N,N-dimethylaminophenyl)-19-norpregna-4,9-diene-3,20-dione]	0.70	–
4-benzoin-21-acetylthio-17α-acetoxy-11β-(4 N,N-dimethylaminophenyl)-19-norpregna-4,9-diene-3,20-dione [CDB-4119]	2.60	0.10
CC(=O)O[C@]1(C(=O)COC(=O)CN)CCC2C3CCC4=CC(=O)CCC4=C3C(c3ccc(N(C)C)cc3)C[C@@]21C (stereo partly drawn) [CDB-4306, 21-glycinate-17α-acetoxy-11β-(4 N,N-dimethylaminophenyl)-19-norpregna-4,9-diene-3,20-dione]	5.90	0.95
CC(=O)O[C@]1(C(=O)C[S+](C)[O-])CCC2C3CCC4=CC(=O)CCC4=C3C(c3ccc(N(C)C)cc3)C[C@@]21C (stereo partly drawn) [CDB-4101, 21-methoxythio-17α-acetoxy-11β-(4 N,N-dimethylaminophenyl)-19-norpregna-4,9-diene-3,20-dione]	0.61	–
CC(=O)O[C@]1(C(=O)CO)CCC2C3CCC4=CC(=O)CCC4=C3C(c3ccc(N(C)C)cc3)C[C@@]21C (stereo partly drawn) [CDB-4152, 21-hydroxy-17α-acetoxy-11β-(4 N,N-dimethylaminophenyl)-19-norpregna-4,9-diene-3,20-dione]	0.82	–
CCOCC(=O)[C@@]1(OC(C)=O)CCC2C3CCC4=CC(=NO)CCC4=C3C(c3ccc(N(C)C)cc3)C[C@@]21C (stereo partly shown) [CDB-4226]	1.51	0.54
COCC(=O)[C@@]1(OC(C)=O)CCC2C3CCC4=C(C(=O)c5ccccc5)C(=O)CCC4=C3C(c3ccc(N(C)C)cc3)C[C@@]21C (stereo partly drawn) [CDB-4239, 4-benzoin-21-methoxy-17α-acetoxy-11β-(4 N,N-dimethylaminophenyl)-19-norpregna-4,9-diene-3,20-dione]	14.80	–
CC(=O)O[C@]1(C(=O)CSC#N)CCC2C3CCC4=CC(=O)CCC4=C3C(c3ccc(N(C)C)cc3)C[C@@]21C (stereo partly drawn) [CDB-4352, 21-cyanothio-17α-acetoxy-11β-(4 N,N-dimethylaminophenyl)-19 norpregna-4,9-diene-3,20-dione]	4.21	–
21-methoxyacetyl-17α-acetoxy-11β-(4 N,N-dimethylaminophenyl)-19-norpregna-4,9-diene-3,20-dione [CDB-4362]	4.74	1.25
21-BMD-17α-acetoxy-11β-(4 N,N-dimethylaminophenyl)-19-norpregna-4,9-diene-3,20-dione [CDB-4111]	1.30	0.36
CCOCC(=O)[C@@]1(OC(C)=O)CCC2C3CCC4=CC(=O)CCC4=C3C(c3ccc(N(C)C)cc3)C[C@@]21C (stereo partly drawn) [CDB-4167, 21-ethyloxy-17α-acetoxy-11β-(4 N,N-dimethylaminophenyl)-19-norpregna-4,9-diene-3,20-dione]	1.69	–
21-(Cyp*-hydroxy)-17α-acetoxy-11β-(4 N,N-dimethylaminophenyl)-19-norpregna-4,9-diene-3,20-dione [CDB-4125]	1.19	1.55
CCC(=O)OCC(=O)[C@@]1(OC(C)=O)CCC2C3CCC4=CC(=O)CCC4=C3C(c3ccc(N(C)C)cc3)C[C@@]21C (stereo partly drawn) [CDB-4247, 21-propionyloxy-17α-acetoxy-11β-(4 N,N-dimethylaminophenyl)-19-norpregna-4,9-diene-3,20-dione]	2.06	–
C=COCC(=O)[C@@]1(OC(C)=O)CCC2C3CCC4=CC(=O)CCC4=C3C(c3ccc(N(C)C)cc3)C[C@@]21C (stereo partly drawn) [CDB-4361, 21-vinyl ether-17α-acetoxy-11β-(4 N,N-dimethylaminophenyl)-19-norpregna-4,9-diene-3,20-dione]	7.20	–
CC(=O)O[C@]1(C(=O)CF)CCC2C3CCC4=CC(=O)CCC4=C3C(c3ccc(N(C)C)cc3)C[C@@]21C (stereo partly drawn) [CDB-4058, 21-flourine-17α-acetoxy-11β-(4 N,N-dimethylaminophenyl)-19-norpregna-4,9-diene-3,20-dione]	1.08	–
CC(=O)O[C@]1(C(=O)CBr)CCC2C3CCC4=CC(=O)CCC4=C3C(c3ccc(N(C)C)cc3)C[C@@]21C (stereo partly drawn) [CDB-4031, 21-bromine-17α-acetoxy-11β-(4 N,N-dimethylaminophenyl)-19-norpregna-4,9-diene-3,20-dione]	0.69	–
COCC(=O)C1(OC(C)=O)CCC2C3CCC4=CC(=NO)CCC4=C3C(c3ccc(N(C)C)cc3)C[C@@]21C (stereo partly drawn) [CDB-4205, 3-hydroxyamino-21-methoxy-17α-acetoxy-11β-(4 N,N-dimethylaminophenyl)-19-norpregna-4,9-diene-3,20-dione]	1.99	1.00

— US20110053900A1, “PROGESTERONE ANTAGONISTS SUCH AS CDB-4124 IN THE TREATMENT OF BREAST CANCER” (Repros Therapeutics inc, priority 2008, published 2011)
